Data reported in patent publication US20190209641A1, “METHODS FOR PREVENTING OR TREATING METABOLIC SYNDROME” (Cornell University, priority 2009, published 2019).
“And” between values parts separate entries of the source, which are not always exact repeats. Identical values can stand only once. Non-standard residues stand in square brackets, D forms with d. No end group written: not given here.

Key:
[1] = tested on: STZ-induced diabetic Sprague-Dawley rats; experiment: STZ diabetes model in male Sprague-Dawley rats, Example 4; assay type: in vivo, rat; settings: 10 mg/kg s.c. q.d. 5 days a week, after peptide treatment for 2 weeks or 4 weeks, vs. STZ/Saline group
Protocol: The objective of this study was to explore the protective effect of SS-31 or SS-20 against Streptozotocin (STZ) induced diabetic complications and metabolic syndrome in male Sprague-Dawley rats.
Rat models of type 1 diabetes were established by administration of high-dose STZ (30 mg/kg). Rats of the same batch fed with regular chow are used as normal control. The study groups included: Group A: STZ+SS-31 10 mg/kg s.c. q.d. (M.-F.), n=11; Group B: STZ+SS-20 10 mg/kg s.c. q.d. (M.-F.), n=11; Group C: STZ+vehicle s.c. q.d. (M.-F.), n=10; Group D: NRC +vehicle s.c. q.d. (M.-F.), n=10.
The compounds were dissolved in saline. The treatment was given once a day (5 days a week) with injection site to be alternated. The concentration of SS-31 and SS-20 dosed at 10mg/kg is 5mg/ml. The treatment volume (0.2 ml/100 g for s.c.) for each test animal was adjusted according to its body weight taken on the beginning of each week. STZ was dissolved in 0.1 M citrate buffer (pH4.5) to concentration of 20 mg/mL. STZ was injected intraperitoneally.

DIO C57BL/6 mice = experiment: Diet-induced obesity (DIO) in C57BL/6 mice, Example 3; assay type: in vivo, mouse; settings: for Glucose Tolerance (IPGTT), Week 5: DIO vehicle 1719.7 ± 56.8, chow vehicle 1213.6 ± 54.1; for glucose tolerance in the obese mouse model (in words): IPGTT, 1 g/kg D-glucose i.p.; for abdominal fat index / subcutaneous fat index: after 14 weeks of treatment
Protocol: To analyze the pharmacodynamic effects of SS-31 and SS-20 against diet-induced obesity (D10) in C57BL/6 mice, the test subjects were fed either a normal diet or a high-fat diet having the composition shown in Table 9.
After several days of acclimation, animals were weighted and randomly assigned to the following treatment groups.
Starting from the first day of treatment, animals in Groups B to I were switched to HFD. During the entire treatment period, the following activities were performed on specific days.
Dose Preparation & Administration. The treatment was given once a day (5 days a week) with injection site alternated. The concentration of SS-31 and SS-20 dosed at 3 mg/kg was 0.6 mg/ml and that of 10 mg/kg was 2 mg/ml. The treatment volume (0.05 mUl0 g for s.c. and 0.2 ml/10 g for p.o.) for each test animal was adjusted according to its body weight taken on the beginning of each week.
Blood Sample Collection. Blood samples were collected by tail snip according to the Medicilon/MPI Preclinical Research (Shanghai) LLC SOP on Blood Collection Techniques. […] Collected blood samples were set at room temperature for 1 hour to allow clotting before being centrifuged at 2,000×g for 10 min. The supernatant were collected and re-centrifuged at 2,000×g for another 10 min. to generate the serum. Part of the serum samples were used for total cholesterol (TC) analysis immediately. The rest were stored at −20° C. until being used in insulin analysis.
Serum Insulin, Triglyceride (TG) & Total Cholesterol (TC). Serum insulin levels were measured using Rat/Mouse Insulin ELISA Kit from Millipore Corporation (Catalog # EZRMI-13K, St. Charles, Mo., USA). Serum TG levels were measured by automatic biochemical analyzer. FIG. 5A is a chart illustrating the effects of peptide treatment on triglycerides in a murine model of diet-induced obesity after 14 weeks of treatment. FIG. 5B is a chart illustrating the effects of peptide treatment on total cholesterol in a murine model of diet-induced obesity after 14 weeks of treatment. FIG. 5C is a chart illustrating the effects of peptide treatment on HDL cholesterol in a murine model of diet-induced obesity after 14 weeks of treatment.
IPGTT. IPGTT was performed according to the Medicilon-MPI Preclinical Research (Shanghai) LLC SOP on Intraperitoneal (IP) Glucose Tolerance Test with slight modifications. Mice were fast overnight before the baseline glucose levels assessed in the next morning. After that, an IP injection of 1 g/kg D-glucose was given to each animal and the blood glucose levels were then measured on 15, 30, 60 and 120 minutes post the IP injection.

HFD/STZ rats = experiment: HFD/STZ rat model of metabolic syndrome, 10-week peptide treatment, Example 2; assay type: in vivo; settings: for TG level before peptide treatment: baseline; for change in blood glucose during 10-week peptide treatment / change in body weight during 10-week peptide treatment: SS-31 10, 3, 1 mg/kg or SS-20 10, 3 mg/kg s.c. once daily 5 days a week
Protocol: This study was initiated to investigate the effects of SS-31 and SS-20 in a model of metabolic syndrome over a 10 week period. Rats were fed with a high-fat diet for 6 weeks and then administered a single dose of STZ (30 mg/kg). The rats were maintained on a HFD until 14 weeks after STZ administration. Control rats fed normal rat chow (NRC) for 6 weeks were then administered citrate buffer without STZ. After 5 months, diabetic rats were treated with SS-31 (10 mg/kg, 3 mg/kg, 1 mg/kg s.c. once daily), SS-20 (10 mg/kg, 3 mg/kg s.c. once daily) or vehicle (saline) 5 days a week for 10 weeks. The study groups were as follows:
Group A: HFD/STZ+SS-31 10 mg/kg s.c. q.d. (Mon-Fri.), n=12;
Group B: HFD/STZ+SS-31 3 mg/kg s.c. q.d. (Mon-Fri.), n=12;
Group C: HFD/STZ+SS-31 1 mg/kg s.c. q.d. (Mon-Fri.), n=10;
Group D: HFD/STZ+SS-20 10 mg/kg s.c. q.d. (Mon-Fri.), n=10;
Group E: HFD/STZ+SS-20 3 mg/kg s.c. q.d. (Mon-Fri.), n=10;
Group F: HFD/STZ+vehicle s.c. q.d. (Mon-Fri.), n=10;
Group G: NRC +vehicle s.c. q.d. (Mon-Fri.), n=10.
HFD feeding for 6 weeks produced obvious body weight gain (452.9±3.8g in HFD group vs. 425.5±7.1 g, P<0.01) and STZ administration increased blood glucose (26.5±0.5 mmol/L in HFD/STZ rats vs. 9.8±0.5 mmol/L in NRC rats, P<0.001) and hyperlipidemia (P<0.01), indicating a metabolic syndrome-like disorder in these test subjects.

HFD/STZ SD rats = experiment: Rat model of metabolic syndrome (HFD + low-dose STZ), Example 1; assay type: in vivo; settings: for body weight increase over the 10-week treatment period: 10 mg/kg s.c. q.d. 5 days a week, by the end of 10th week, HFD/STZ control 3.6%, NRC 23.3%; for effect on blood glucose: 10 mg/kg s.c., week 4 post peptide treatment, vs. HFD/STZ vehicle rats
Protocol: The effects of aromatic-cationic peptides in treating a subject suffering from metabolic syndrome were investigated in a Sprague-Dawley rat model over […]. The example describes the results of such experiments.
In vivo models. A rat model of metabolic syndrome was established by combination of 6-week HFD and low-dose STZ (40 mg/kg) injection in SD rats. Rats of the same batch fed with normal chow (NRC) were used as a control.
Study groups. Group A: NRC+PBS s.c. q.d. (Mon-Fri)*, n=5; Group B: HFD +STZ+PBS s.c. q.d. (Mon-Fri), n=8; Group C:HFD+STZ+SS-31 10 mg/kg s.c. q.d. (Mon-Fri), n=8; Group D: HFD+STZ+SS-20 10 mg/kg s.c. q.d. (Mon-Fri), n=8.
Preparation and administration of test compounds. SS-31 or SS-20 was dissolved in 0.01 M PBS (pH 7.0). The 10-week treatment was given once a day (5 days a week) with s.c. injection site alternated. The concentration of SS-31 and SS-20 was 5.0 mg/mL. The injection volume (0.2 mL/100 g) for each test animal was adjusted according to body weight taken on the beginning of each week. STZ was dissolved in 0.1 M citrate buffer (pH 4.5) to concentration of 20 mg/mL. STZ is injected intraperitoneally.
Blood glucose. Blood glucose was tested by ACCU-CHEK® Advantage™ blood glucose meter and test strips from Roche diagnostics GmbH (Mannheim, Germany).
Blood sample handling. Blood samples were collected by tail snip. […] Collected blood samples were set at room temperature for 30 min to allow clotting before being centrifuged at 1,200×g for 10 min. The supernatant were collected and re-centrifuged at 1,200×g for another 5 min to generate the serum. Serum samples were aliquotted and stored at −20° C. until being used in analysis.
Statistics: Statistic analysis oft-test and one-way ANOVA was performed by SPSS (Statistical Package for Social Science) analysis software.

[2] = 10 mg/kg s.c. q.d. 5 days a week

| Compound | TG level [1] | Glucose Tolerance (IPGTT), Week 5 (DIO C57BL/6 mice; 3 mg/kg s.c.) | Glucose Tolerance (IPGTT), Week 5 (DIO C57BL/6 mice; 10 mg/kg s.c.) | glucose tolerance in the obese mouse model (in words) (DIO C57BL/6 mice) | abdominal fat index (DIO C57BL/6 mice) | subcutaneous fat index (DIO C57BL/6 mice) | TG level before peptide treatment (HFD/STZ rats; 3 mg/kg group, 3 mg/kg) | TG level after 10 weeks' peptide treatment (HFD/STZ rats; 3 mg/kg s.c. q.d. 5 days a week, 3 mg/kg) | TG level before peptide treatment (HFD/STZ rats; 10 mg/kg group) [mM] | TG level after 10 weeks' peptide treatment (HFD/STZ rats; [2]) [mM] | change in blood glucose during 10-week peptide treatment (HFD/STZ rats) | change in body weight during 10-week peptide treatment (HFD/STZ rats) | body weight increase over the 10-week treatment period (HFD/STZ SD rats) [%] | effect on blood glucose (HFD/STZ SD rats) | Glucose Tolerance (IPGTT), Week 5 (DIO C57BL/6 mice; 2 mg/kg p.o.) | TG level before peptide treatment (HFD/STZ rats; 3 mg/kg group) [mM] | TG level after 10 weeks' peptide treatment (HFD/STZ rats; 3 mg/kg s.c. q.d. 5 days a week) [mM] |
| --- | --- | --- | --- | --- | --- | --- | --- | --- | --- | --- | --- | --- | --- | --- | --- | --- | --- |
| F[dR]FK-NH2 [SS-20] | increased less than STZ/Saline group | 1534.1 ± 53.3 | 1494.5 ± 54.4 | significantly improve glucose tolerance | capable of reducing | capable of reducing | 4.66 ± 1.40 mM and 3.90 ± 0.65 mM | 2.43 ± 0.47 mM and 3.70 ± 1.16 mM | 4.17 ± 1.02 | 1.97 ± 0.46 | no obvious changes | no obvious changes | 9.0 | down-regulation effect on blood glucose |  |  |  |
| CN(CCOc1ccc(CC2SC(=O)NC2=O)cc1)c1ccccn1 (centres unmarked) [Rosi, Rosiglitazone, reference compound] |  |  |  |  |  |  |  |  |  |  |  |  |  |  | 1487.5 ± 44.2 |  |  |
| D-Arg-2′,6′-Dmt-Lys-Phe-NH2 [SS-31] | increased less than STZ/Saline group | 1460.6 ± 64.1 | 1584.3 ± 78.3 | significantly improve glucose tolerance | capable of reducing | capable of reducing |  |  | 3.77 ± 0.38 | 1.75 ± 0.33 | no obvious changes | no obvious changes | 16.3 | down-regulation effect on blood glucose |  | 4.17 ± 0.88 | 2.46 ± 0.52 |
